Experimental data published in patent EP0628046B1, “TRIAZOLOPYRIMIDIN DERIVATIVES AS ANTIOTENSIN II RECEPTOR ANTAGONISTS” (LABORATOIRES UPSA, priority 1992, dated 1993).

Tests used:
[1] = system: récepteurs surrénaliens de l'angiotensine Il; experiment: Displacement of [125I]-SIAII radioligand from adrenal angiotensin II receptors (rat adrenal homogenate); assay type: binding; conditions: 60 min at 25°C
Excerpt: L'affinité des produits des exemples pour les récepteurs de l'angiotensine Il est évaluée par technique de déplacement d'un radioligand spécifiquement fixé sur les récepteurs surrénaliens de l'angiotensine Il, chez le rat.
Une aliquote d'un homogénat de surrénales de rat incube en présence d'une concentration unique de [1251] - SIAII (Sar1, Tyr4, Ile8 - angiotensine il), antagoniste des récepteurs de l'angiotensine Il, et de deux concentrations d'agents compétiteurs (10^-5 M, 10^-7 M) durant 60 min à 25°C.
La réaction est achevée par ajout de tampon, puis rapide filtration à travers des filtres de papier de verre. La liaison non spécifique est déterminée en présence d'angiotensine II.
Les résultats sont exprimés, pour les concentrations testées, en pourcentage de déplacement du radioligand spécifiquement fixé sur les récepteurs surrénaliens de l'angiotensine il.

[2] = system: cellules musculaires lisses d'aortes de rat (CMLV); experiment: Inhibition of PDGF-induced cell proliferation (3H-thymidine incorporation) in rat aortic smooth muscle cells; assay type: cell-based; conditions: 1E - 4M; 1 h pretreatment, 22 h PDGF stimulation
Experimental: B. Mesure de l'inhibition de la prolifération cellulaire induite par les facteurs de croissance (exemple : le Platelet-Derived Growth Factor ou PDGF) dans les cellules musculaires lisses d'aortes de rat
L'inhibition de la prolifération cellulaire induite par un facteur de croissance (exemple : le PDGF) est évaluée par mesure de l'incorporation de 3H-thymidine dans les cellules musculaires lisses d'aortes de rat (CMLV).
Les CMLV sont cultivées à 37°C, en 5 % C02, jusqu'à la sous-confluence puis placées pendant 24 heures en quiescence dans un milieu pauvre en sérum. Elles sont ensuite prétraitées pendant une heure par la molécule à tester (10^-4M) puis stimulées pendant 22 heures par un facteur de croissance (exemple : le PDGF). L'incorporation de 3H-thymidine est effectuée pendant les 4 dernières heures. Toutes ces étapes sont effectuées à 37°C, en 5 % CO2. La réaction est terminée par aspiration du milieu réactionnel, détachement des cellules, puis filtration des cellules lysées à travers des filtres en fibres de verre.
Les résultats sont exprimés en pourcentage d'inhibition de la stimulation d'incorporation de 3H-thymidine due à l'action du facteur de croissance.

Row | Compound | % de déplacement du ligand marqué ([1]; competitor 1E-5M, 10 µM) | % de déplacement du ligand marqué ([1]; competitor 1E-7M, 0.1 µM) | % inhibition de l'incorporation de 3H-thymidine induite par le PDGF [2]
1 | CCCc1c(Cc2ccc(-c3sccc3-c3nnn[nH]3)cc2)c(O)nc2ncnn12 [Exemple 79, 5-hydroxy-7-propyl-6-[4-[3-(1-H-tétrazol-5-yl)-2-thiényl]benzyl]-1,2,4-triazolo [1,5-a] pyrimidine] | 58% | 26% | –
2 | CCCc1nc2nncn2c(O)c1Cc1ccc(-c2ccccc2-c2nnn[nH]2)cc1 [Exemple 65, 5-hydroxy-7-propyl-6-[(2'-(1-H-tétrazol-5-yl)biphényl-4-yl)méthyl]-1,2,4 triazolo [4,3-a] pyrimidine] | 63% | 47% | –
3 | 7-N,N-diethylamino-5-propyl-6-[(2'-(1-H-tétrazol-5-yl) biphényl-4-yl) méthyl]-1,2,4-triazolo [1,5-a] pyrimidine [Exemple 69] | 69% | 19% | 100%
4 | CCCc1c(Cc2ccc(-c3ccccc3-c3nnn[nH]3)cc2)c(O)nc2nc(N)nn12 [Exemple 75, 2-amino-5-hydroxy-7-propyl-6-[(2'-(1-H-tétrazol-5-yl)biphényl-4-yl)méthyl]-1,2,4-triazolo [1,5-a] pyrimidine] | 61% | 60% | –
5 | CCCCc1c(Cc2ccc(-c3ccccc3-c3nnn[nH]3)cc2)c(O)nc2nc(C)nn12 [Exemple 82, 7-butyl-5-hydroxy-2-méthyl-6-[(2'(1-H-tétrazol-5-yl)biphényl-4-yl)méthyl]-1,2,4-triazolo [1,5-a] pyrimidine] | 58% | 11% | –
6 | CCCc1c(Cc2ccc(-c3ccccc3-c3nnn[nH]3)cc2)c(O)nc2ncnn12 [Exemple 63, 5-hydroxy-7-propyl-6-[(2'-(1-H-tétrazol-5-yl)biphényl-4-yl)méthyl]-1,2,4-triazolo [1,5-a] pyrimidine] | 61% | 52% | –
7 | CCCc1c(Cc2ccc(-c3ccccc3-c3nnn[nH]3)cc2)c(N)nc2ncnn12 [Exemple 77, 5-amino-7-propyl-6-[(2'-(1-H-tétrazol-5-yl)biphényl-4-yl)méthyl]-1,2,4-triazolo [1,5-a] pyrimidine] | 63% | 31% | –
8 | CCCc1nc2ncnn2c(O)c1Cc1ccc(-c2ccccc2-c2nnn[nH]2)cc1 [Exemple 62, 7-hydroxy-5-propyl-6-[(2'-(1-H-tétrazol-5-yl)biphényl-4-yl)méthyl]-1,2,4-triazolo [1,5-a]pyrimidine] | 65% | 52% | –
9 | CCCc1nc2nc(CC)nn2c(O)c1Cc1ccc(-c2ccccc2-c2nnn[nH]2)cc1 [Exemple 68, 2-éthyl-7-hydroxy-5-propyl-6-[(2'-(1-H-tétrazol-5-yl)biphényl-4-yl)méthyl]-1,2,4-triazolo [1,5-a] pyrimidine] | 69% | 59% | –
10 | CCCc1c(Cc2ccc(-c3ccccc3-c3nnn[nH]3)cc2)c(N(CC)CC)nc2ncnn12 [Exemple 76, 5-N,N-diéthylamino-7-propyl-6-[(2'-(1-H-tétrazol-5-yl)biphényl-4-yl)méthyl]-1,2,4-triazolo [1,5-a] pyrimidine] | 63% | 28% | –
